Experimental data published in patent US6369088B2, “Substituted 3-phenyl-5-alkoxy-1,3,4-oxadiazol-2-ones, their preparation and their use as pharmaceuticals” (Aventis Pharma Deutschland GmbH, priority 2000, dated 2002).

Structure (SMILES)	melting point [°C]
COc1nn(-c2ccc([N+](=O)[O-])c(F)c2)c(=O)o1	127
COc1nn(-c2ccc(NC(=O)Oc3ccccc3)c(C)c2)c(=O)o1	145
COc1nn(-c2ccc([N+](=O)[O-])c(C)c2)c(=O)o1 [Example 20, 5-Methoxy-3-(3-methyl-4-nitrophenyl)-3H-(1,3,4)oxadiazol-2-one]	112
COc1nn(-c2ccc([N+](=O)[O-])cc2C)c(=O)o1 [Example 23, 5-Methoxy-3-(2-methyl-4-nitrophenyl)-3H-(1,3,4)oxadiazol-2-one]	111
COc1nn(-c2ccc([N+](=O)[O-])c(OCc3ccc(F)cc3)c2)c(=O)o1 [Example 24, 5-Methoxy-3-(3-(4-fluorobenzyloxy)-4-nitrophenyl)-3H-(1,3,4)oxadiazol-2-one]	137
COc1nn(-c2ccc(Oc3ccc(Cl)cc3)c(N)c2)c(=O)o1 [Example 27, 5-Methoxy-3-(3-amino-4-(4-chlorophenoxy)phenyl)-3H-(1,3,4)oxadiazol-2-one]	133
COc1nn(-c2ccc(N)c(OCc3ccc(F)cc3)c2)c(=O)o1 [Example 29, 5-Methoxy-3-(4-amino-3-(4-fluorobenzyloxy)phenyl)-3H-(1,3,4)oxadiazol-2-one]	195
COc1nn(-c2ccc(NC(=O)Cc3ccc(Cl)cc3)c(C)c2)c(=O)o1 [Example 31, 5-Methoxy-3-(4-(4-chlorophenylacetylamino)-3-methylphenyl)-3H-(1,3,4)oxadiazol-2-one]	190
COc1nn(-c2ccc(NC(=O)CCCCl)c(C)c2)c(=O)o1 [Example 35, 5-Methoxy-3-(4-(4-chlorobutanoylamino)-3-methylphenyl)-3H-(1,3,4)oxadiazol-2-one]	137
COc1nn(-c2ccc(NC(=O)C(C)(C)C)c(C)c2)c(=O)o1 [Example 36, 5-Methoxy-3-(4-pivaloylamino-3-methylphenyl)-3H-(1,3,4)oxadiazol-2-one]	157
COc1nn(-c2ccc(NS(=O)(=O)CC(F)(F)F)c(C)c2)c(=O)o1 [Example 40, 5-Methoxy-3-(4-(2,2,2-trifluoroethylsulfonylamino)-3-methylphenyl)-3H-(1,3,4)oxadiazol-2-one]	151
COc1nn(-c2ccc(NS(=O)(=O)c3ccc(Cl)cc3)cc2)c(=O)o1 [Example 43, 5-Methoxy-3-(4-(4-chlorophenylsulfonylamino)phenyl)-3H-(1,3,4)oxadiazol-2-one]	169
COc1nn(-c2ccc(NS(=O)(=O)c3ccccc3Cl)cc2)c(=O)o1 [Example 44, 5-Methoxy-3-(4-(2-chlorophenylsulfonylamino)phenyl)-3H-(1,3,4)oxadiazol-2-one]	171
COc1nn(-c2ccc(NS(=O)(=O)c3cccc(Cl)c3)cc2)c(=O)o1 [Example 45, 5-Methoxy-3-(4-(3-chlorophenylsulfonylamino)phenyl)-3H-(1,3,4)oxadiazol-2-one]	141
COc1nn(-c2ccc(NC(=O)Cc3ccc(Cl)cc3)c(OCc3ccc(F)cc3)c2)c(=O)o1 [Example 46, 5-Methoxy-3-(4-(4-chlorophenylacetylamino)-3-(4-fluorobenzyloxy)phenyl)-3H-(1,3,4)oxadiazol-2-one]	167
COc1nn(-c2ccc(NS(=O)(=O)Cc3ccccc3)cc2)c(=O)o1 [Example 47, 5-Methoxy-3-(4-benzylsulfonylaminophenyl)-3H-(1,3,4)oxadiazol-2-one]	153
COc1nn(-c2ccc(NS(=O)(=O)C(C)C)cc2)c(=O)o1 [Example 49, 5-Methoxy-3-(4-isopropylsulfonylaminophenyl)-3H-(1,3,4)oxadiazol-2-one]	190
COc1nn(-c2ccc(N(C)C)c(C)c2)c(=O)o1 [Example 50, 5-Methoxy-3-(4-dimethylamino-3-methylphenyl)-3H-(1,3,4)oxad iazol-2-one]	71
CNc1ccc(-n2nc(OC)oc2=O)cc1OCc1ccc(F)cc1 [Example 55, 5-Methoxy-3-(3-(4-fluorobenzyloxy)-4-methylaminophenyl)-3H-(1,3,4)oxadiazol-2-one]	98
COc1nn(-c2cccc(N)c2)c(=O)o1 [Example 56, 5-Methoxy-3-(3-aminophenyl)-3H-(1,3,4)oxadiazol-2-one]	95
COc1nn(-c2cccc(N(Cc3ccccc3)Cc3ccccc3)c2)c(=O)o1 [Example 57, 5-Methoxy-3-(3-dibenzylaminophenyl)-3H-(1,3,4)oxadiazol-2-one]	71

Structure (SMILES)	melting point [°C]
COc1nn(-c2ccc(NC(=O)Nc3ccccn3)cc2)c(=O)o1 [Example 59, 5-Methoxy-3-(4-(pyrid-2-yl)aminocarbonylaminophenyl)-3H-(1,3,4)oxadiazol-2-one]	81
COc1nn(-c2ccc(N)cc2Cl)c(=O)o1 [Example 63, 5-Methoxy-3-(4-amino-2-chlorophenyl)-3H-(1,3,4)oxadiazol-2-one]	126
COc1nn(-c2ccc([N+](=O)[O-])cc2Cl)c(=O)o1 [Example 64, 5-Methoxy-3-(2-chloro-4-nitrophenyl)-3H-(1,3,4)oxadiazol-2-one]	92
COc1nn(-c2ccc(NC(=O)c3ccc(OC(F)(F)F)cc3)cc2C)c(=O)o1 [Example 66, 5-Methoxy-3-(2-methyl-4-(4-trifluoromethoxybenzoylamino)phenyl)-3H-(1,3,4)oxadiazol-2-one]	150
COc1nn(-c2ccc(NC(=O)OCc3ccccc3)cc2Cl)c(=O)o1 [Example 67, 5-Methoxy-3-(2-chloro-4-benzyloxycarbonylaminophenyl)-3H-(1,3,4)oxadiazol-2-one]	150
COc1nn(-c2ccc(NC(=O)OCc3ccc(Cl)cc3)cc2)c(=O)o1 [Example 70, 5-Methoxy-3-(4-(4-chlorobenzyloxycarbonylamino)phenyl)-3H-(1,3,4)oxadiazol-2-one]	177
COc1nn(-c2ccc(NC(=O)c3ccc(Cl)c(Cl)c3)cc2)c(=O)o1 [Example 72, 5-Methoxy-3-(4-(3,4-dichlorobenzoylamino)phenyl)-3H-(1,3,4)oxadiazol-2-one]	200
COc1nn(-c2ccc(NC(=O)C(C)(C)Oc3ccc(Cl)cc3)cc2)c(=O)o1 [Example 73, 5-Methoxy-3-(4-(2-(4-chlorophenoxy)-2-methylpropionylamino)phenyl)-3H-(1,3,4)oxadiazol-2-one]	153
Cc1cc(-n2nc(OC(C)C)oc2=O)ccc1NC(=O)OCc1ccccc1 [Example 75, 5-isopropoxy-3-(3-methyl-4-benzyloxycarbonylaminophenyl)-3H-(1,3,4)oxadiazol-2-one]	119
CCCCOC(=O)Nc1ccc(-n2nc(OC(C)C)oc2=O)cc1C [Example 76, 5-isopropoxy-3-(3-methyl-4-butyloxycarbonylaminophenyl)-3H-(1,3,4)oxadiazol-2-one]	114
Cc1cc(-n2nc(OC(C)C)oc2=O)ccc1NC(=O)Nc1cccc(Cl)c1 [Example 77, 5-isopropoxy-3-(3-methyl-4-(3-chlorophenylaminocarbonylamino)phenyl)-3H-(1,3,4)oxadiazol-2-one]	201
Cc1cc(-n2nc(OC(C)(C)C)oc2=O)ccc1NC(=O)OCc1ccccc1 [Example 78, 5-tert-Butoxy-3-(3-methyl-4-benzyloxycarbonylaminophenyl)-3H-(1,3,4)oxadiazol-2-one]	113
COc1nn(-c2ccc(NC(=O)NC3Cc4ccccc4C3)c(C)c2)c(=O)o1 [Example 81, 5-Methoxy-3-(3-methyl-4-(indan-2-ylaminocarbonylamino)phenyl)-3H-(1,3,4)oxadiazol-2-one]	206
COc1nn(-c2ccc(NC(=O)NCc3cccnc3)c(C)c2)c(=O)o1 [Example 82, 5-Methoxy-3-(3-methyl-4-(pyrid-3-ylmethylaminocarbonylamino)phenyl)-3H-(1,3, 4)oxadiazol-2-one]	229
COc1nn(-c2ccc(NC(=O)OCc3cccnc3)c(C)c2)c(=O)o1 [Example 83, 5-Methoxy-3-(3-methyl-4-(pyrid-3-ylmethoxycarbonylamino)phenyl)-3H-(1,3,4)oxadiazol-2-one]	232
COc1nn(-c2ccc(NC(=O)c3ccc(C(F)(F)F)cc3)c(OCc3ccccc3)c2)c(=O)o1 [Example 86, 5-Methoxy-3-(3-benzyloxy-4-(4-trifluoromethylbenzoylamino)phenyl)-3H-(1,3,4)oxadiazol-2-one]	159
COc1nn(-c2ccc(NC(=O)c3ccc(C(C)(C)C)cc3)c(F)c2)c(=O)o1 [Example 87, 5-Methoxy-3-(3-fluoro-4-(4-tert-butylbenzoylamino)phenyl)-3H-(1,3,4)oxadiazol-2-one]	144
COc1nn(-c2ccc(NC(=O)OCC(F)(F)F)c(C)c2)c(=O)o1 [Example 88, 5-Methoxy-3-(3-methyl-4-(2,2,2-trifluoroethoxycarbonylamino)phenyl)-3H-(1,3, 4)oxadiazol-2-one]	141
COc1nn(-c2ccc(NC(=O)N3CCCCC3)c(C)c2)c(=O)o1 [Example 89, 5-Methoxy-3-(3-methyl-4-piperidinocarbonylaminophenyl)-3H-(1,3,4)oxadiazol-2-one]	154
COc1ccc2cc(C(=O)Nc3ccc(-n4nc(OC)oc4=O)cc3)oc2c1 [Example 90, 5-Methoxy-3-(4-(6-methoxybenzofuran-2-yl-carbonylamino)phenyl)-3H-(1,3,4)oxadiazol-2-one]	191
